This is an account of results in patent US10526280B2 (University of Pittsburgh—Of the Commonwealth System of …, priority 2014, dated 2020).

The target in one data set is T1, KCNQ2/3 channels (Homo sapiens, UniProt O43525+O43526).
T1 construct: expressed in transfected cells; host or cells: CHO cells, transient expression
Briefly: KCNQ2/3 currents, voltage clamp of CHO cells transiently expressing heterologous KCNQ2/3 channels. The format is cell-based.

The target in the next data set is T2, KCNQ4 channels (Homo sapiens, UniProt P56696).
T2 construct: expressed in transfected cells; host or cells: CHO cells, transient expression
Description: KCNQ4 currents, voltage clamp of CHO cells transiently expressing homomeric KCNQ4 channels. The format is cell-based. The following applies: 100 nM and 1 μM. On the procedure: (§1) FIG. 7. […] CHO cells transiently expressing homomeric KCNQ4 or KCNQ5 channels were clamped at −85 mV and KCNQ currents were measured elicited by 1 s depolarization step from −105 to +15 mV in the increment of 10 mV followed by return step to −70 mV. […] B1-2. […] C1-2. […] E1-2. […] F1-2. […] H1-2. […] I1-2.
(§2) FIG. 9. […] CHO cells transiently expressing heterologous KCNQ2/3 and homomeric KCNQ4 and KCNQ5 channels were clamped at −85 mV and KCNQ currents were elicited by 1 s depolarization step from −105 to +15 mV in the increment of 10 mV followed by return step to −70 mV. A1. […] A2. […] A3. […] Curves were fitted with a hill equation and EC50 values were calculated. B1.

In the next data set the target is T3, KCNQ5 channels (Homo sapiens, UniProt Q9NR82).
T3 construct: expressed in transfected cells; host or cells: CHO cells, transient expression
Briefly: KCNQ5 currents, voltage clamp of CHO cells transiently expressing homomeric KCNQ5 channels. It is filed as cell-based. The following applies: 100 nM and 1 μM. On the procedure: as §1, §2

The conditions of data set [1]: hydrochloride salt; cited from earlier work.
The mark [2] stands for this setting: CHO cells, 100 nM-30 μM, Hill fit, mean±SEM, read-out: EC50 of half activation shift (ΔV1/2) of KCNQ2/3 currents.

Like-named read-outs stand apart in the source and are kept apart here.

T1 sequence (O43526 whole entry): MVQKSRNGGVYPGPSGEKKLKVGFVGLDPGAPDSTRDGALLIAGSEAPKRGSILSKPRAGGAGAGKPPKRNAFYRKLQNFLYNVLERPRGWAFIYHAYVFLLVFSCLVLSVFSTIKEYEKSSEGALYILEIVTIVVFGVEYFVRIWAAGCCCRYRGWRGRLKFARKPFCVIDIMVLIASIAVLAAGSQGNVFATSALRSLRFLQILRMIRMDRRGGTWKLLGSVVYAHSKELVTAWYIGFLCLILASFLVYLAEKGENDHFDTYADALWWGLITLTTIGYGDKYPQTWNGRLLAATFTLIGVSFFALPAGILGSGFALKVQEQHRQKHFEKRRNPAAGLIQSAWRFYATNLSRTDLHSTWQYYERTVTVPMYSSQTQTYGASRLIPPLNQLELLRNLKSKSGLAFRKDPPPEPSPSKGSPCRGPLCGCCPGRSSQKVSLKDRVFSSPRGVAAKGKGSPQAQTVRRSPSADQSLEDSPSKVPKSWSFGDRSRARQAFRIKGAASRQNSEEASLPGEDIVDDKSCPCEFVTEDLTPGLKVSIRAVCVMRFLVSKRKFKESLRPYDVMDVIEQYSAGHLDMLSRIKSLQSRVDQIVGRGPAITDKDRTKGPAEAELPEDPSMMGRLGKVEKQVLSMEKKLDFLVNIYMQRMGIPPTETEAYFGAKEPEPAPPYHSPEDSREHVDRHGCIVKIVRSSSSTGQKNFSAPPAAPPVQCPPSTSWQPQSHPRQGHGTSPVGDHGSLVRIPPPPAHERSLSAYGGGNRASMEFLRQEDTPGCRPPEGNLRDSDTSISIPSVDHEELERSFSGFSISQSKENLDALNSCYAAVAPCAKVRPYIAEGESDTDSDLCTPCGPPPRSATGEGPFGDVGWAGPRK
T1 sequence (O43525 whole entry): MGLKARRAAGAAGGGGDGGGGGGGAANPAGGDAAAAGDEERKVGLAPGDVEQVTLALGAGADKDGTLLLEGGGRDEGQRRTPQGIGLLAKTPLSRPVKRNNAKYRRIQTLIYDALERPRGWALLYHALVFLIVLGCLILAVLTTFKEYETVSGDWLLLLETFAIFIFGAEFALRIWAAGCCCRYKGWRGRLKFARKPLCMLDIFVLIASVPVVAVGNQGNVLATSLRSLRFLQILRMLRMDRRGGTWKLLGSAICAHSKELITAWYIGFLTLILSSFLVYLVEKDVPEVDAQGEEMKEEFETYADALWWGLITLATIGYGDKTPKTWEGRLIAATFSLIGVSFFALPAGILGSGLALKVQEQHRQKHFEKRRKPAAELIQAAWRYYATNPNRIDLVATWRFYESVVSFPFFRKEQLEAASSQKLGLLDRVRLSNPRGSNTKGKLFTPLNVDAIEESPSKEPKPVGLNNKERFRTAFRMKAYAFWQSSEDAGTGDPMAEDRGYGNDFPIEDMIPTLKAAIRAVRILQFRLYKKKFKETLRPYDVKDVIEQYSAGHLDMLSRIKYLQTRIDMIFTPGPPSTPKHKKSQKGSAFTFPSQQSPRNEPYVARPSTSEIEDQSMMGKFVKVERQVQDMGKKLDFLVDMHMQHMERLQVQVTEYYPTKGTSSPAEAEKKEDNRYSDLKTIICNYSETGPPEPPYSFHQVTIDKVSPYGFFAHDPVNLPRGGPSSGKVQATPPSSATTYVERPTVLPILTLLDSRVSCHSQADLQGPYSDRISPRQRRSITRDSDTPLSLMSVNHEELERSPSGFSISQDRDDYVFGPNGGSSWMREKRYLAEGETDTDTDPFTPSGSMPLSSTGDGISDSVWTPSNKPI
Description for KCNQ2/3 channels: Retigabine and SF0034 at KCNQ2/3 channels. […] CHO cells transiently expressing heterologous KCNQ2/3 channels were clamped at −85 mV and KCNQ2/3 currents were measured elicited by 1 s depolarization step from −105 to +15 mV in the increment of 10 mV followed by return step to −70 mV. […] Representative current traces of KCNQ2/3 currents at increasing membrane potentials in absence and presence of 100 nM retigabine (A) and 100 nM SF0034 (C). B, D. Representative curves of normalized G-V (conductance-voltage) relationship of KCNQ2/3 currents at control and at increasing concentration of retigabine (B) and SF0034 (D). E. Summary bar graph representing half activation (V1/2) of KCNQ2/3 currents calculated from normalized G-V Boltzmann curves at control and at increasing concentration of retigabine and SF0034. […] Curves were fitted with a hill equation and EC50 values were calculated. Error bars represent mean±SEM. **p<0.01, ***p<0.001.
CHO cells transiently expressing heterologous KCNQ2/3 channels were clamped at −85 mV and KCNQ2/3 currents were measured elicited by 1 s depolarization step from −105 to +15 mV in the increment of 10 mV followed by return step to −70 mV. […] Curves were fitted with a hill equation and EC50 values were calculated. Error bars represent mean±SEM. *p<0.05, **p<0.01.
CHO cells transiently expressing heterologous KCNQ2/3 and homomeric KCNQ4 and KCNQ5 channels were clamped at −85 mV and KCNQ currents were elicited by 1 s depolarization step from −105 to +15 mV in the increment of 10 mV followed by return step to −70 mV. […] Representative current traces of KCNQ2/3 currents at increasing membrane potentials in absence and presence of 100 nM or 1 μM RL648_81. […] Representative curves of normalized G-V relationship of KCNQ2/3 currents at control and at increasing concentration of RL648_81. […] Summary bar graph representing half activation (V1/2) of KCNQ2/3 currents calculated from normalized G-V Boltzmann curves at control and at increasing concentration of RL648_81 A4. […] Curves were fitted with a hill equation and EC50 values were calculated. […] D. Summary bar graphs representing EC50 values of second generation compounds tested at KCNQ2/3 channels in comparison with SF0034.

As to `CCOC(=O)Nc1ccc(NCc2ccc(C(F)(F)F)cc2)c(F)c1N` [RL648_81, Ethyl (2-amino-3-fluoro-4-((4-(trifluoromethyl)benzyl)amino)phenyl)carbamate], the “potency in activating KCNQ2/3 channel currents relative to SF0034 (times more potent)” value on KCNQ2/3 channels (CHO cells) is reported as “three times more potent than SF0034”. At KCNQ2/3 channels (setting [2]), the EC50 stood at 190 ± 20 nM. Besides, the “activation of KCNQ4 channel currents” value on KCNQ4 channels is “does not potentiate KCNQ4 and KCNQ5 channel currents significantly”. Also, the “activation of KCNQ5 channel currents” value at KCNQ5 channels was “does not potentiate KCNQ4 and KCNQ5 channel currents significantly”.
`CCOC(=O)Nc1ccc(NCc2ccc(F)cc2)cc1N` [retigabine, reference compound] yielded an EC50 on KCNQ2/3 channels of 3300 ± 800 nM. Also, the “solubility in aqueous solution” value in data set [1] is reported as “only sparingly soluble”.
In turn, `CCOC(=O)Nc1ccc(NCc2ccc(C(F)(F)F)cc2)cc1N` returned an EC50 on KCNQ2/3 channels of 910 ± 80 nM.
Regarding `CCOC(=O)Nc1ccc(NCc2cccc(C(F)(F)F)c2)cc1N` [NR561_50, N-[2-Amino-4-({[3-(trifluoromethyl)phenyl]methyl}amino)phenyl]ethoxycarboxamide], the EC50 on KCNQ2/3 channels (setting [2]) was found to be 740 ± 70 nM. Besides, the “activation of KCNQ4 channel currents” value at KCNQ4 channels was “does not activate KCNQ4 and KCNQ5 channel currents significantly”. Moreover, the “activation of KCNQ5 channel currents” value at KCNQ5 channels was “does not activate KCNQ4 and KCNQ5 channel currents significantly”.
Regarding `CCOC(=O)Nc1ccc(NCc2cccc(C(F)(F)F)c2)c(F)c1N` [RL648_73, Ethyl (2-amino-3-fluoro-4-((3-(trifluoromethyl)benzyl)amino)phenyl)carbamate], the “potency in activating KCNQ2/3 channel currents relative to SF0034 (times more potent)” value on KCNQ2/3 channels (CHO cells) amounted to 2 times.
On to `CC(C)OC(=O)Nc1ccc(NCc2ccc(F)cc2)cc1N` [NR561_62, N-(2-Amino-4-{[(4-fluorophenyl)methyl]amino}phenyl)(methylethoxy)carboxamide], for which the “potency in activating KCNQ2/3 channel currents relative to SF0034 (times lower potency)” value at KCNQ2/3 channels (CHO cells) is reported as 2-3 times. Moreover, the EC50 at KCNQ2/3 channels (setting [2]) was determined as 1480 ± 180 nM.
Consider `CCOC(=O)Nc1ccc(NCc2ccc(F)cc2)c(F)c1N` [SF0034, reference compound], for which the “shift of half activation (V1/2) of KCNQ2/3 currents from control” value on KCNQ2/3 channels (100 nM) is on record as “significantly shift the V1/2”. For the same compound, at KCNQ2/3 channels (CHO cells), the “potency in activating KCNQ2/3 channel currents relative to retigabine (times more potent)” value is reported as “five-times more potent than retigabine”. The EC50 on KCNQ2/3 channels (setting [2]) came out at 600 ± 60 nM.
“Isopropyl (2-amino-3-fluoro-4-((4-fluorobenzyl)amino)phenyl)carbamate [RL648_86]”: the “potency in activating KCNQ2/3 channel currents relative to SF0034 (times more potent)” value at KCNQ2/3 channels (CHO cells) is 2 times.
